According to patent US8304419B2, “Chemical compounds” (priority 2007, dated 2012):
Structures can show the parent of a compound that is named as a salt.

Each molecule was assayed on HIV wild type (WTRVA) (assay: HeLa cell assay, wild type virus (WTRVA)). Conditions: Human immunodeficiency virus 1, HeLa, HeLa cell assay; read-out: IC50 against WTRVA.
Assay type: cell-based, HIV-1
Design: scale not given here

SMILES | IC50 [nM]
CCc1cc(C#N)cc(Oc2c(Cl)ccc(CNC(=O)c3[nH]c(C)nc3Br)c2F)c1 [Example 149, 4-bromo-N-({4-chloro-3-[(3-cyano-5-ethylphenyl)oxy]-2-fluorophenyl}methyl)-2-methyl-1H-imidazole-5-carboxamide] | < 10
Cc1nc(Cl)c(C(=O)NCc2ccc(C(F)F)c(Oc3cc(Cl)cc(C#N)c3)c2F)[nH]1 [Example 254, 4-chloro-N-{[3-[(3-chloro-5-cyanophenyl)oxy]-4-(difluoromethyl)-2-fluorophenyl]methyl}-2-methyl-1H-imidazole-5-carboxamide] | < 10
CCc1ccc(CNC(=O)c2[nH]cnc2Cl)c(F)c1Oc1cc(Cl)cc(C#N)c1 [Example 250, 4-chloro-N-({3-[(3-chloro-5-cyanophenyl)oxy]-4-ethyl-2-fluorophenyl}methyl)-1H-imidazole-5-carboxamide] | < 10
N#Cc1cc(Cl)cc(Oc2c(Cl)ccc(Cn3cnc4cc[nH]c4c3=O)c2F)c1 [Example 369, 3-chloro-5-({6-chloro-2-fluoro-3-[(4-oxo-4,5-dihydro-3H-pyrrolo[3,2-d]pyrimidin-3-yl)methyl]phenyl}oxy)benzonitrile] | < 10
N#Cc1cc(Cl)cc(Oc2c(Cl)ccc(CNC(=O)c3[nH]ccc3Cl)c2F)c1 [Example 128, 3-chloro-N-({4-chloro-3-[(3-chloro-5-cyanophenyl)oxy]-2-fluorophenyl}methyl)-1H-pyrrole-2-carboxamide] | < 10
CC#Cc1cc(C#N)cc(Oc2c(Cl)ccc(CNC(=O)c3[nH]cnc3Cl)c2F)c1 [Example 317, 4-chloro-N-[(4-chloro-3-{[3-cyano-5-(1-propyn-1-yl)phenyl]oxy}-2-fluorophenyl)methyl]-1H-imidazole-5-carboxamide] | < 10
Cc1cc(C#N)cc(Oc2c(Cl)ccc(CNC(=O)c3[nH]c(C)nc3Cl)c2F)c1 [Example 305, 4-chloro-N-({4-chloro-3-[(3-cyano-5-methylphenyl)oxy]-2-fluorophenyl}methyl)-2-methyl-1H-imidazole-5-carboxamide trifluoroacetate] | < 10
Cc1cc(C#N)cc(Oc2c(Cl)ccc(CNC(=O)c3[nH]c(C)nc3Br)c2F)c1 [Example 146, 4-bromo-N-({4-chloro-3-[(3-cyano-5-methylphenyl)oxy]-2-fluorophenyl}methyl)-2-methyl-1H-imidazole-5-carboxamide] | < 10
N#Cc1cc(Cl)cc(Oc2c(Br)ccc(CNC(=O)c3[nH]cnc3Cl)c2F)c1 [Example 378, N-({4-bromo-3-[(3-chloro-5-cyanophenyl)oxy]-2-fluorophenyl}methyl)-4-chloro-1H-imidazole-5-carboxamide] | < 10
Cc1nc(Cl)c(C(=O)NCc2ccc(Cl)c(Oc3cc(C#N)cc(C(F)F)c3)c2F)[nH]1 [Example 300, 4-chloro-N-[(4-chloro-3-{[3-cyano-5-(difluoromethyl)phenyl]oxy}-2-fluorophenyl)methyl]-2-methyl-1H-imidazole-5-carboxamide trifluoroacetate] | < 10
C=Cc1cc(C#N)cc(Oc2c(Cl)ccc(CNC(=O)c3[nH]cnc3Cl)c2F)c1 [Example 143, 4-chloro-N-({4-chloro-3-[(3-cyano-5-ethenylphenyl)oxy]-2-fluorophenyl}methyl)-1H-imidazole-5-carboxamide] | < 10
Cc1nc(Cl)c(C(=O)NCc2ccc(C3CC3)c(Oc3cc(Cl)cc(C#N)c3)c2F)[nH]1 [Example 270, 4-Chloro-N-({3-[(3-chloro-5-cyanophenyl)oxy]-4-cyclopropyl-2-fluorophenyl}methyl)-2-methyl-1H-imidazole-5-carboxamide] | < 10
N#Cc1cc(Oc2c(Cl)ccc(CNC(=O)c3[nH]c(N)nc3Cl)c2F)cc(C2CC2)c1 [Example 307, 2-amino-4-chloro-N-({4-chloro-3-[(3-cyano-5-cyclopropylphenyl)oxy]-2-fluorophenyl}methyl)-1H-imidazole-5-carboxamide trifluoroacetate] | < 10

Same assay, conditions: Human immunodeficiency virus 1, HeLa, HeLa-CD4-LTR-β-gal cells, wild type virus; read-out: WTRVA activity level

SMILES | IC50 [nM]
N#Cc1cc(Cl)cc(Oc2c(Cl)ccc(CNC(=O)c3nc4ccc([N+](=O)[O-])cc4[nH]3)c2F)c1 [Example 124, N-({4-chloro-3-[(3-chloro-5-cyanophenyl)oxy]-2-fluorophenyl}methyl)-5-nitro-1H-benzimidazole-2-carboxamide] | 10 to 1000
CS(=O)(=O)c1ccc(C(=O)NCc2ccc(Cl)c(Oc3cc(Cl)cc(C#N)c3)c2F)c(Cl)c1 [Example 16, 2-chloro-N-({4-chloro-3-[(3-chloro-5-cyanophenyl)oxy]-2-fluorophenyl}methyl)-4-(methylsulfonyl)benzamide] | 10 to 1000
N#Cc1cc(Cl)cc(Oc2c(Cl)ccc(CNC(=O)c3cc4ccc(O)cc4[nH]3)c2F)c1 [Example 36, N-({4-chloro-3-[(3-chloro-5-cyanophenyl)oxy]-2-fluorophenyl}methyl)-6-hydroxy-1H-indole-2-carboxamide] | < 10
CC(=O)Nc1ccc2cc(C(=O)NCc3ccc(Cl)c(Oc4cc(Cl)cc(C#N)c4)c3F)[nH]c2c1 [Example 122, 6-(acetylamino)-N-({4-chloro-3-[(3-chloro-5-cyanophenyl)oxy]-2-fluorophenyl}methyl)-1H-indole-2-carboxamide] | < 10
COc1ccc2cc(C(=O)NCc3ccc(Cl)c(Oc4cc(Cl)cc(C#N)c4)c3F)[nH]c2c1 [Example 21, N-({4-chloro-3-[(3-chloro-5-cyanophenyl)oxy]-2-fluorophenyl}methyl)-6-(methyloxy)-1H-indole-2-carboxamide] | 10 to 1000
COc1ccc2[nH]c3c(c2c1)CCN(Cc1ccc(Cl)c(Oc2cc(Cl)cc(C#N)c2)c1F)C3=O [Example 38, 3-chloro-5-[(6-chloro-2-fluoro-3-{[6-(methyloxy)-1-oxo-1,3,4,9-tetrahydro-2H-β-carbolin-2-yl]methyl}phenyl)oxy]benzonitrile] | 10 to 1000
CS(=O)(=O)c1cc(F)cc2cc(C(=O)NCc3ccc(Cl)c(Oc4cc(Cl)cc(C#N)c4)c3F)[nH]c12 [Example 33, N-({4-chloro-3-[(3-chloro-5-cyanophenyl)oxy]-2-fluorophenyl}methyl)-5-fluoro-7-(methylsulfonyl)-1H-indole-2-carboxamide] | 10 to 1000
CSc1ncccc1C(=O)NCc1ccc(Cl)c(Oc2cc(Cl)cc(C#N)c2)c1F [Example 86, N-({4-chloro-3-[(3-chloro-5-cyanophenyl)oxy]-2-fluorophenyl}methyl)-2-(methylthio)-3-pyridinecarboxamide trifluoroacetate] | 10 to 1000
Cc1nc2ccccn2c1C(=O)NCc1ccc(Cl)c(Oc2cc(Cl)cc(C#N)c2)c1F [Example 97, N-({4-chloro-3-[(3-chloro-5-cyanophenyl)oxy]-2-fluorophenyl}methyl)-2-methylimidazo[1,2-a]pyridine-3-carboxamide trifluoroacetate] | < 10
COc1ccc(C(=O)NCc2ccc(Cl)c(Oc3cc(Cl)cc(C#N)c3)c2F)c(C)c1 [Example 17, N-({4-chloro-3-[(3-chloro-5-cyanophenyl)oxy]-2-fluorophenyl}methyl)-2-methyl-4-(methyloxy)benzamide] | 10 to 1000
COc1ccc2[nH]c(C(=O)NCc3ccc(Cl)c(Oc4cc(Cl)cc(C#N)c4)c3F)cc2c1Br [Example 73, 4-bromo-N-({4-chloro-3-[(3-chloro-5-cyanophenyl)oxy]-2-fluorophenyl}methyl)-5-(methyloxy)-1H-indole-2-carboxamide trifluoroacetate] | 10 to 1000
N#Cc1cc(Cl)cc(Oc2c(Cl)ccc(CNC(=O)c3[nH]ccc3Cl)c2F)c1 [Example 128, 3-chloro-N-({4-chloro-3-[(3-chloro-5-cyanophenyl)oxy]-2-fluorophenyl}methyl)-1H-pyrrole-2-carboxamide] | < 10
CC(=O)NCc1ccc2cc(C(=O)NCc3ccc(Cl)c(Oc4cc(Cl)cc(C#N)c4)c3F)[nH]c2c1 [Example 74, 6-[(acetylamino)methyl]-N-({4-chloro-3-[(3-chloro-5-cyanophenyl)oxy]-2-fluorophenyl}methyl)-1H-indole-2-carboxamide trifluoroacetate] | < 10
N#Cc1cc(Cl)cc(Oc2cc(CNC(=O)c3ccc(Cl)c(S(N)(=O)=O)c3)ccc2Cl)c1 [Example 5, 3-(aminosulfonyl)-4-chloro-N-({4-chloro-3-[(3-chloro-5-cyanophenyl)oxy]phenyl}methyl)benzamide trifluoroacetate] | 10 to 1000
N#Cc1cc(Cl)cc(Oc2c(Cl)ccc(CNC(=O)c3[nH]c4cc(OCCO)ccc4c3Br)c2F)c1 [Example 141, 3-Bromo-N-({4-chloro-3-[(3-chloro-5-cyanophenyl)oxy]-2-fluorophenyl}methyl)-6-[(2-hydroxyethyl)oxy]-1H-indole-2-carboxamide] | < 10
N#Cc1cc(Cl)cc(Oc2c(Cl)ccc(CNC(=O)c3cc[nH]n3)c2F)c1 [Example 95, N-({4-chloro-3-[(3-chloro-5-cyanophenyl)oxy]-2-fluorophenyl}methyl)-1H-pyrazole-3-carboxamide] | 10 to 1000
N#Cc1cc(Cl)cc(Oc2c(Cl)ccc(CNC(=O)c3cc4cc(NC(=O)CN)ccc4[nH]3)c2F)c1 [Example 120, N-({4-chloro-3-[(3-chloro-5-cyanophenyl)oxy]-2-fluorophenyl}methyl)-5-(glycylamino)-1H-indole-2-carboxamide trifluoroacetate] | < 10
N#Cc1cc(Cl)cc(Oc2c(Cl)ccc(CNC(=O)c3snnc3-c3ccccc3)c2F)c1 [Example 99, N-({4-chloro-3-[(3-chloro-5-cyanophenyl)oxy]-2-fluorophenyl}methyl)-4-phenyl-1,2,3-thiadiazole-5-carboxamide] | > 1000
N#Cc1cc(Cl)cc(Oc2c(Cl)ccc(CNC(=O)c3cc4cc(O)ccc4[nH]3)c2F)c1 [Example 26, N-({4-chloro-3-[(3-chloro-5-cyanophenyl)oxy]-2-fluorophenyl}methyl)-5-hydroxy-1H-indole-2-carboxamide] | < 10
N#Cc1cc(Cl)cc(Oc2c(Cl)ccc(CNC(=O)c3ccc[nH]3)c2F)c1 [Example 57, N-({4-chloro-3-[(3-chloro-5-cyanophenyl)oxy]-2-fluorophenyl}methyl)-1H-pyrrole-2-carboxamide] | < 10
COc1ccc2cc(C(=O)NCc3ccc(Cl)c(Oc4cc(Cl)cc(C#N)c4)c3)[nH]c2c1 [Example 7, N-({4-chloro-3-[(3-chloro-5-cyanophenyl)oxy]phenyl}methyl)-6-(methyloxy)-1H-indole-2-carboxamide] | 10 to 1000
